This assay addresses T1, human TLR9 (Homo sapiens, UniProt Q9NR96).
T1 construct: host or cells: HEK-Blue cells
T1 sequence (Q9NR96 26-1032): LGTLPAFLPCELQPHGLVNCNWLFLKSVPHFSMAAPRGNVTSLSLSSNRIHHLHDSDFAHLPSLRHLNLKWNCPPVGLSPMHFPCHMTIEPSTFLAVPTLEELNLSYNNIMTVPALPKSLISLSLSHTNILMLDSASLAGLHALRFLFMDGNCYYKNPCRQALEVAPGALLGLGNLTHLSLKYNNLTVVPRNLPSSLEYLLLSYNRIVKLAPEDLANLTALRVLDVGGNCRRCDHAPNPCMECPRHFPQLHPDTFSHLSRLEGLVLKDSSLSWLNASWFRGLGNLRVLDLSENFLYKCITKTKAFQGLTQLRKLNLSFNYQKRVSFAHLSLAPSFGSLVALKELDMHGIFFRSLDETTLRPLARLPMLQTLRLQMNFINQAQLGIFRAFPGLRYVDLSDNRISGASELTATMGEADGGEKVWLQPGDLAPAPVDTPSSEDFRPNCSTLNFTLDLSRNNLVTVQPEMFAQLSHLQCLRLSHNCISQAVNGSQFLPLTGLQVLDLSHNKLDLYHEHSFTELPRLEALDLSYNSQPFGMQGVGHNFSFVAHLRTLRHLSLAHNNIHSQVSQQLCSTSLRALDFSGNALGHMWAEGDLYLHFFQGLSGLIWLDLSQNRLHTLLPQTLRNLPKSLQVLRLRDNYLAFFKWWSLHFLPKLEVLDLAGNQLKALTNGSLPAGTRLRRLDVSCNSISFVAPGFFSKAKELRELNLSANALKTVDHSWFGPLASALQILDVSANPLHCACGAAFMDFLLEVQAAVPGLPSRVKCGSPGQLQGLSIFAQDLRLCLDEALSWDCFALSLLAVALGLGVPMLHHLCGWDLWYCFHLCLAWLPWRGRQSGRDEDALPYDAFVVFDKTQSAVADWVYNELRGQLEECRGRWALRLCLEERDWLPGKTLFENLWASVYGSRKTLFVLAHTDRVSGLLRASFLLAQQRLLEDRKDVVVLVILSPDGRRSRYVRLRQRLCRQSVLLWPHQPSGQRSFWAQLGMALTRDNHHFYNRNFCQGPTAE
Description: TLR9 inhibition reporter assay (HEK-Blue cells, SEAP reporter). Type of assay: cell-based. To be noted: HEK-Blue cells overexpressing human TLR9, stimulated with ODN2006 5 nM, 22 hour incubation. As to the method: TLR7/8/9 Inhibition Reporter Assays
HEK-Blue™-cells (Invivogen) overexpressing human TLR7, TLR8 or TLR9 receptors were used for screening inhibitors of these receptors using an inducible SEAP (secreted embryonic alkaline phosphatase) reporter gene under the control of the IFN-β minimal promoter fused to five NF-κB and AP-1-binding sites. Briefly, cells are seeded into Greiner 384 well plates (15000 cells per well for TLR7, 20,000 for TLR8 and 25,000 for TLR9) and then treated with test compounds in DMSO to yield a final dose response concentration range of 0.05 nM-50 μM. […] After a 22 hour incubation at 37° C., 5% CO2, SEAP levels are determined with the addition of HEK-Blue™ Detection reagent (Invivogen), a cell culture medium that allows for detection of SEAP, according to manufacturer's specifications. The percent inhibition is determined as the % reduction in the HEK-Blue signal present in wells treated with agonist plus DMSO alone compared to wells treated with a known inhibitor.

This passage reports IC50 results from patent US12590091B2, “1H-pyrrolo[3,2-C]pyridine and 1H-pyrrolo[2,3-C]pyridine derivatives as TLR9 inhibitors for the treatment of fibrosis” (BRISTOL-MYERS SQUIBB COMPANY, priority 2020, dated 2026).

Consider `Cc1nc(-c2ccc(N3CCN(C(C)C)CC3)c(F)c2)cc2c1cc(-c1ccc(S(C)(=O)=O)cc1)n2C` [Example 12, 6-(3-Fluoro-4-(4-isopropylpiperazin-1-yl)phenyl)-1,4-dimethyl-2-(4-(methylsulfonyl)phenyl)-1H-pyrrolo[3,2-c]pyridine], for which the concentration for half-maximal inhibition (IC50) amounted to 36 nM.
The figure for `COc1ccc(-c2cc3cnc(-c4ccc(N5CCN(C(C)=O)CC5)cc4)cc3n2C)cc1OC` [Example 30, 1-(4-(4-(2-(3,4-dimethoxyphenyl)-1-methyl-1H-pyrrolo[3,2-c]pyridin-6-yl)phenyl)piperazin-1-yl) ethan-1-one] is 579 nM.
The figure for `Cc1nc(-c2ccc(N3CCN(C(C)C)CC3)cc2)cc2c1cc(-c1cccc(S(C)(=O)=O)c1)n2C` [Example 39, 6-(4-(4-isopropylpiperazin-1-yl)phenyl)-1,4-dimethyl-2-(3-(methylsulfonyl)phenyl)-1H-pyrrolo[3,2-c]pyridine] is 672 nM.
For `Cc1nc(-c2ccc(N3CCN(CC(C)C)CC3)cc2)cc2c1cc(-c1cccc(S(C)(=O)=O)c1)n2C` [Example 40, 6-(4-(4-isobutylpiperazin-1-yl)phenyl)-1,4-dimethyl-2-(3-(methylsulfonyl)phenyl)-1H-pyrrolo[3,2-c]pyridine] the value was 98 nM.
The compound `Cc1nc(-c2ccc(N3CCN(C(C)C)CC3)cc2)cc2c1cc(-c1ccc(S(=O)(=O)C3CC3)cc1)n2C` [Example 42, 2-(4-(Cyclopropylsulfonyl)phenyl)-6-(4-(4-isopropylpiperazin-1-yl)phenyl)-1,4-dimethyl-1H-pyrrolo[3,2-c]pyridine] gave an IC50 of 346 nM.
For `Cc1nc(-c2ccc(N3CCN(CC(C)C)CC3)cc2)cc2c1cc(-c1ccc(S(=O)(=O)C3CC3)cc1)n2C` [Example 46, 2-(4-(cyclopropylsulfonyl)phenyl)-6-(4-(4-isobutylpiperazin-1-yl)phenyl)-1,4-dimethyl-1H-pyrrolo[3,2-c]pyridine] the value was 213 nM; for `Cc1nc(-c2ccc(N3CCN(C(C)C)CC3)cc2)cc2c1cc(-c1ccc(S(=O)(=O)N(C)C)cc1)n2C` [Example 49, 4-(6-(4-(4-isopropylpiperazin-1-yl)phenyl)-1,4-dimethyl-1H-pyrrolo[3,2-c]pyridin-2-yl)-N,N-dimethylbenzenesulfonamide], 6760 nM.
Regarding `Cc1nc(-c2ccc(N3CCN(C4COC4)CC3)cc2)cc2c1cc(-c1ccc(S(=O)(=O)N(C)C)cc1)n2C` [Example 50, 4-(1,4-dimethyl-6-(4-(4-(oxetan-3-yl)piperazin-1-yl)phenyl)-1H-pyrrolo[3,2-c]pyridin-2-yl)-N,N-dimethylbenzenesulfonamide], it took 2410 nM to reach half-maximal inhibition (IC50).
Take `COCCN1CCN(c2ccc(-c3cc4c(cc(-c5ccc(S(=O)(=O)N(C)C)cc5)n4C)c(C)n3)cc2)CC1` [Example 51, 4-(6-(4-(4-(2-methoxyethyl)piperazin-1-yl)phenyl)-1,4-dimethyl-1H-pyrrolo[3,2-c]pyridin-2-yl)-N,N-dimethylbenzenesulfonamide]: 44 nM corresponded to half-maximal inhibition (IC50).
The figure for `Cc1nc(-c2ccc(N3CCN(C4CCOC4)CC3)cc2)cc2c1cc(-c1ccc(S(=O)(=O)N(C)C)cc1)n2C` (centres unmarked) [Example 52, 4-(1,4-dimethyl-6-(4-(4-(tetrahydrofuran-3-yl)piperazin-1-yl)phenyl)-1H-pyrrolo[3,2-c]pyridin-2-yl)-N,N-dimethylbenzenesulfonamide] is 202 nM; for `Cc1nc(-c2ccc(N3CCN(C4CC4)CC3)cc2)cc2c1cc(-c1ccc(S(C)(=O)=O)cc1)n2C` [Example 62, 6-(4-(4-cyclopropylpiperazin-1-yl)phenyl)-1,4-dimethyl-2-(4-(methylsulfonyl)phenyl)-1H-pyrrolo[3,2-c]pyridine] it is 105 nM.
For `Cc1nc(-c2ccc(N3CCN4CCCC4C3)cc2)cc2c1cc(-c1ccc(S(C)(=O)=O)cc1)n2C` (centres unmarked) [Example 63, 6-(4-(hexahydropyrrolo[1,2-a]pyrazin-2(1H)-yl)phenyl)-1,4-dimethyl-2-(4-(methylsulfonyl)phenyl)-1H-pyrrolo[3,2-c]pyridine] the value was 146 nM.
`Cc1nc(-c2ccc(N3CC4CCC(C3)N4C(C)C)cc2)cc2c1cc(-c1ccc(S(C)(=O)=O)cc1)n2C` [Example 64, 6-(4-(8-isopropyl-3,8-diazabicyclo[3.2.1]octan-3-yl)phenyl)-1,4-dimethyl-2-(4-(methylsulfonyl)phenyl)-1H-pyrrolo[3,2-c]pyridine] displayed an IC50 of 6.4 nM.
For `Cc1nc(-c2ccc(N3CCN4CCCC4C3)c(F)c2)cc2c1cc(-c1ccc(S(C)(=O)=O)cc1)n2C` (centres unmarked) [Example 65, 6-(3-fluoro-4-(hexahydropyrrolo[1,2-a]pyrazin-2(1H)-yl)phenyl)-1,4-dimethyl-2-(4-(methylsulfonyl)phenyl)-1H-pyrrolo[3,2-c]pyridine] the value was 136 nM.
Regarding `COCCN1CCN(c2ccc(-c3cc4c(cc(-c5ccc(S(C)(=O)=O)cc5)n4C)c(C)n3)cc2F)CC1` [Example 66, 6-(3-fluoro-4-(4-(2-methoxyethyl)piperazin-1-yl)phenyl)-1,4-dimethyl-2-(4-(methylsulfonyl)phenyl)-1H-pyrrolo[3,2-c]pyridine], the IC50 stood at 136 nM.
For `Cc1nc(-c2cccc(N3CCN(C(C)C)CC3)c2)cc2c1cc(-c1ccc(S(C)(=O)=O)cc1)n2C` [Example 67, 6-(3-(4-isopropylpiperazin-1-yl)phenyl)-1,4-dimethyl-2-(4-(methylsulfonyl)phenyl)-1H-pyrrolo[3,2-c]pyridine] the value was 25 nM; for `Cc1nc(-c2cccc(N3CCN(C4CC4)CC3)c2)cc2c1cc(-c1ccc(S(C)(=O)=O)cc1)n2C` [Example 68, 6-(3-(4-cyclopropylpiperazin-1-yl)phenyl)-1,4-dimethyl-2-(4-(methylsulfonyl)phenyl)-1H-pyrrolo[3,2-c]pyridine], 299 nM; for `Cc1nc(-c2ccc(N3CCN(C4CCOCC4)CC3)c(F)c2)cc2c1cc(-c1ccc(S(C)(=O)=O)cc1)n2C` [Example 71, 6-(3-fluoro-4-(4-(tetrahydro-2H-pyran-4-yl)piperazin-1-yl)phenyl)-1,4-dimethyl-2-(4-(methylsulfonyl)phenyl)-1H-pyrrolo[3,2-c]pyridine], 3 nM.
For `Cc1nc(-c2ccc(N3CCN(CC(C)C)CC3)c(F)c2)cc2c1cc(-c1ccc(S(C)(=O)=O)cc1)n2C` [Example 72, 6-(3-fluoro-4-(4-isobutylpiperazin-1-yl)phenyl)-1,4-dimethyl-2-(4-(methylsulfonyl)phenyl)-1H-pyrrolo[3,2-c]pyridine] the value was 411 nM.
Regarding `Cc1nc(-c2ccc(N3CC4CCC(C3)N4CC(C)C)cc2)cc2c1cc(-c1ccc(S(C)(=O)=O)cc1)n2C` [Example 73, 6-(4-(8-isobutyl-3,8-diazabicyclo[3.2.1]octan-3-yl)phenyl)-1,4-dimethyl-2-(4-(methylsulfonyl)phenyl)-1H-pyrrolo[3,2-c]pyridine], the midpoint of inhibition, the IC50, lay at 359 nM.
The figure for `Cc1nc(-c2cc(F)c(N3CCN(C4CCOCC4)CC3)cc2F)cc2c1cc(-c1ccc(S(C)(=O)=O)cc1)n2C` [Example 81, 6-(2,5-difluoro-4-(4-(tetrahydro-2H-pyran-4-yl)piperazin-1-yl)phenyl)-1,4-dimethyl-2-(4-(methylsulfonyl)phenyl)-1H-pyrrolo[3,2-c]pyridine] is 670 nM; for `Cc1nc(-c2ccc(N3CCN(C4CCOCC4)CC3)c(F)c2F)cc2c1cc(-c1ccc(S(C)(=O)=O)cc1)n2C` [Example 83, 6-(2,3-difluoro-4-(4-(tetrahydro-2H-pyran-4-yl)piperazin-1-yl)phenyl)-1,4-dimethyl-2-(4-(methylsulfonyl)phenyl)-1H-pyrrolo[3,2-c]pyridine] it is 2300 nM.
For `Cc1nc(-c2cc(F)c(N3CCN(CC(C)C)CC3)c(F)c2)cc2c1cc(-c1ccc(S(C)(=O)=O)cc1)n2C` [Example 84, 6-(3,5-difluoro-4-(4-isobutylpiperazin-1-yl)phenyl)-1,4-dimethyl-2-(4-(methylsulfonyl)phenyl)-1H-pyrrolo[3,2-c]pyridine] the value was 626 nM.

One may read the IC50 as the concentration needed to halve the response being measured. Read a low IC50 as greater potency in that assay.
